Experimental findings from US7081531B2, “Bridged bicyclic amine derivatives useful as CCR-3 receptor antagonists” (Roche Palo Alto LLC, priority 2003, dated 2006) are described below.

The target in one data set is T1, CCR-3 receptor (Homo sapiens, UniProt P51677).
T1 construct: expressed in transfected cells; host or cells: L1.2 (murine pre-beta lymphoma line) transfected with CCR-3
T1 sequence (P51677 1-355): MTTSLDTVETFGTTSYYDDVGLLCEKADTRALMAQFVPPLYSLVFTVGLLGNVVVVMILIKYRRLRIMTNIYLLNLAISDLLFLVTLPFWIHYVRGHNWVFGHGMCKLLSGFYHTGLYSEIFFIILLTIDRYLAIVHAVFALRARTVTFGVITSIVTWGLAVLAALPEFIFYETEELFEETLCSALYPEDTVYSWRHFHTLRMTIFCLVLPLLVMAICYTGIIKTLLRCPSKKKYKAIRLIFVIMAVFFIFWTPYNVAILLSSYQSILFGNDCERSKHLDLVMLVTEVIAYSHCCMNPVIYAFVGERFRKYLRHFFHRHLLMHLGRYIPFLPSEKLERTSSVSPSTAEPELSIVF
Put plainly: CCR-3 receptor binding assay, inhibition of 125I eotaxin binding to CCR-3 L1.2 transfectant cells. To be noted: inhibition of 125I-eotaxin binding to CCR-3 L1.2 transfected cells, 1 hour at rt. The procedure: CCR-3 Receptor Binding Assay—In Vitro
The CCR-3 antagonistic activity of the compounds of the invention was determined by their ability to inhibit the binding of ^125I eotaxin to CCR-3 L1.2 transfectant cells (see Ponath, P. D. et al., J. Exp. Med., 183:2437–48, (1996)).
The assay was performed in Costar 96-well polypropylene round bottom plates. Test compounds were dissolved in DMSO and then diluted with binding buffer (50 mM HEPES, 1 mM CaCl2, 5 mM MgCl2, 0.5% bovine serum albumin (BSA), 0.02% sodium azide, pH 7.24) such that the final DMSO concentration was 2%. 25 μl of the test solution or only buffer with DMSO (control samples) was added to each well, followed by the addition of 25 μl of ^125I-eotaxin ([…]) (NEX314, New England Nuclear, Boston, Mass.) and 1.5×10^5 of the CCR-3 L1.2 transfected cells in 25 μl binding buffer. The final reaction volume was 75 μl.
After incubating the reaction mixture for 1 hour at rt, the reaction was terminated by filtering the reaction mixture through a polyethylenimine-treated Packard Unifilter GF/C filter plate (Packard, Chicago, Ill.). The filters were washed four times with ice cold wash buffer containing 10 mm HEPES and 0.5 M sodium chloride (pH 7.2) and dried at 65° C. for approximately 10 minutes. 25 μl/well of Microscint-20® scintillation fluid (Packard) was added and the radioactivity retained on the filters was determined by using the Packard TopCount®
Compounds of this invention were active in this assay.

Take `Cc1c(CN2CC3CCC2CC3Cc2ccc(Cl)c(Cl)c2)c(=O)n(-c2ccccc2)n1C` (stereo not shown) [Example 2, 4-[5-(3,4-Dichloro-benzyl)-2-aza-bicyclo[2.2.2]oct-2-ylmethyl]-1,5-dimethyl-2-phenyl-1,2-dihydro-pyrazol-3-one]: on CCR-3 receptor, the IC50 stood at 331 nM.

On CCR-3 receptor, `Cc1c(CN2C3CCC2CC(Cc2ccc(Cl)c(Cl)c2)C3)c(=O)n(-c2ccccc2)n1C` (stereo not shown) [Example 6, 4-[3-(3,4-dichloro-benzyl)-8-aza-bicyclo[3.2.1]oct-8-ylmethyl]-1,5-dimethyl-2-phenyl-1,2-dihydro-pyrazol-3-one] displayed an IC50 of 965 nM. Against the preceding molecule, the IC50 is about 2.9-fold higher.

The molecule `COc1cc(NC(=O)N[C@@H](CN2C3CCC2CC(Cc2ccc(Cl)cc2)C3)[C@@H](C)O)cc(OC)c1OC` (stereo partly shown) [Example 7] yielded a melting point of 118 to 123 °C. The IC50 on CCR-3 receptor came out at 8.2 nM.
